Measured values: patent US20170334899A1, “AMINO-SUBSTITUTED ISOTHIAZOLES” (Bayer Pharma Aktiengesellschaft, priority 2014, published 2017)

Biological target: T1, human kinase Mps-1 (Homo sapiens, UniProt P33981)
T1 construct: N-terminally GST-tagged human full length recombinant Mps-1 kinase; GST (N); purchased Invitrogen, Karslruhe, Germany PV4071
T1 sequence (P33981 1-857): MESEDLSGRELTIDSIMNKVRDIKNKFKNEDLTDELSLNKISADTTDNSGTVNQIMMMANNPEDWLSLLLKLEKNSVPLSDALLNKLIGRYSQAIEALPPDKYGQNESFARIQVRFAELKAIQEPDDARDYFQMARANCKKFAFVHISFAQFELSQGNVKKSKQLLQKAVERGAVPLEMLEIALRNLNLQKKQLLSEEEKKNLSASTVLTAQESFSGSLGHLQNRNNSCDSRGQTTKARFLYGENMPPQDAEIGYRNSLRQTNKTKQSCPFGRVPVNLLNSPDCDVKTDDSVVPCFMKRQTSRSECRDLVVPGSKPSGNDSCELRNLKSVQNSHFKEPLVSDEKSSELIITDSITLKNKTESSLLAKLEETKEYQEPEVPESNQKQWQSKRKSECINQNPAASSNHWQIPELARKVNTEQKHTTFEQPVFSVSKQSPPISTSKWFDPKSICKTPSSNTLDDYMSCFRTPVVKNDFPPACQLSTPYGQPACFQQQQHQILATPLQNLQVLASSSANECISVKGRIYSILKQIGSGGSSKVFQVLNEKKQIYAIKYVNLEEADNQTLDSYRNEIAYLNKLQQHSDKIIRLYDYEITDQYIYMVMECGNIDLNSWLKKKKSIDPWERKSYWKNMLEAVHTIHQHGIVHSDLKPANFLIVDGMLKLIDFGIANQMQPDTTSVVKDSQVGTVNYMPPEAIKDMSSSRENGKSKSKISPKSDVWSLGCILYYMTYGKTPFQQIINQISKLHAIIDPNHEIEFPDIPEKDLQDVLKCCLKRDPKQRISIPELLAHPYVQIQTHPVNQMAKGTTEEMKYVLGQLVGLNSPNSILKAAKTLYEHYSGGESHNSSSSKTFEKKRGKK
Experiment: Mps-1 kinase assay (TR-FRET)
Format: biochemical
Details: Mps-1 TR-FRET kinase assay; avg; read-out: Mps1 avg (IC50 [mol/l])
Summary of the method: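 Inhibition normalised between uninhibited reaction (0%) and enzyme-free wells (100%), using the blank-corrected TR-FRET 665/620 nm ratio after EDTA stop. Reaction: ~0.5 nM GST-Mps-1 full length, 10 μM ATP, 1 μM biotin-peptide, 60 min at 22 °C, after 15 min compound pre-binding, pH 7.7.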

IC50	SMILES
> 20 µM	Cc1nsc(Nc2cncc(C(F)(F)F)n2)c1C(=O)Nc1ccc(F)c(OC2CCN(CC(F)F)CC2)c1 [Example 268, N-(3-{[1-(2,2-difluoroethyl)piperidin-4-yl]oxy}-4-fluorophenyl)-3-methyl-5-{[6-(trifluoromethyl)pyrazin-2-yl]amino}-1,2-thiazole-4-carboxamide]
9 µM	Cc1nsc(Nc2cc(C#N)ccn2)c1C(=O)Nc1ccc(OC2CCNCC2)nc1 [Example 24, 5-[(4-Cyanopyridin-2-yl)amino]-3-methyl-N-[6-(piperidin-4-yloxy)pyridin-3-yl]-1,2-thiazole-4-carboxamide]
14 µM	Cc1nsc(Nc2cnc3ccccc3n2)c1C(=O)Nc1cccc(NS(=O)(=O)C2CN(CC(F)F)C2)c1 [Example 286, N-[3-({[1-(2,2-difluoroethyl)azetidin-3-yl]sulfonyl}amino)phenyl]-3-methyl-5-(quinoxalin-2-ylamino)-1,2-thiazole-4-carboxamide]
